Measured values: the supplement of paper PMC7108870

Key:
HEK293sieSTAT3(Y640F) [1] = assay: drug sensitivity score (DSS), cytotoxicity CellTox Green (DSS (dimensionless)); higher = more cytotoxic; extreme values may be limits of the assay; settings: 72 h; STAT3 variant: Y640F (constitutively active)
Method in brief: (§1)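 Compounds were acoustically pre-plated in 384-well plates at 5 concentrations spaced by 10-fold dilutions, and HEK293 cells overexpressing wild-type or mutant STAT3 and carrying a STAT3-dependent luciferase reporter were added at 100,000 cells/ml in 20 μl. After 72 hours at 37°C and 5% CO2, the plates were read on a PHERAstar FS for CellTox Green fluorescence (485/520 nm) and then CellTiter-Glo luminescence. A drug sensitivity score derived from dose-response curve area was calculated in Breeze from values normalised to negative and positive control wells.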

HEK293sieSTAT3(wt) [2] = assay: as above; settings: 72 h; STAT3 variant: wild type
Method in brief: as §1

HEK293sieSTAT3(Y640F) [3] = assay: drug sensitivity score (DSS), viability CellTiter-Glo (DSS (dimensionless)); higher = more growth inhibition; extreme values may be limits of the assay; settings: 72 h; STAT3 variant: Y640F (constitutively active)
Method in brief: as §1

HEK293sieSTAT3(wt) [4] = assay: as above; settings: 72 h; STAT3 variant: wild type
Method in brief: as §1

Row | Structure (SMILES) | drug sensitivity score (HEK293sieSTAT3(Y640F) [1]) | drug sensitivity score (HEK293sieSTAT3(wt) [2]) | drug sensitivity score (HEK293sieSTAT3(Y640F) [3]) | drug sensitivity score (HEK293sieSTAT3(wt) [4])
1 | CN(CC(=O)N(Cc1ccc(C2CCCCC2)cc1)c1ccc(C(=O)O)cc1)S(=O)(=O)c1c(F)c(F)c(F)c(F)c1F [SH-4-54] (top concentration tested 25000 nM) | 5.59 | 9.04 | 10.1 | 10.8
2 | CC(C)NC(=O)COc1cccc(-c2nc(Nc3ccc4[nH]ncc4c3)c3ccccc3n2)c1 [SLx-2119] (top concentration tested 5000 nM) | 0 | 0.57 | 10.7 | 5.8
3 | CCc1c2c(nc3ccc(O)cc13)-c1cc3c(c(=O)n1C2)COC(=O)[C@]3(O)CC [SN-38] (top concentration tested 10000 nM) | 14.3 | 22.4 | 42 | 40.7
4 | CC(C)(C)c1cnc(CSc2cnc(NC(=O)C3CCNCC3)s2)o1 [SNS-032] (top concentration tested 10000 nM) | 10.3 | 22.6 | 25.3 | 26.7
5 | O=C(Nc1cccc(Cl)c1)Nc1ncc(CCNc2ncnc3ccsc23)s1 [SNS-314] (top concentration tested 1000 nM) | 0 | 2.17 | 5.69 | 5
6 | Cc1cc2c(C(=O)NC[C@H](C)c3ccccc3)c(O)c(O)cc2c(O)c1-c1c(C)cc2c(C(=O)NC[C@H](C)c3ccccc3)c(O)c(O)cc2c1O [Sabutoclax] (top concentration tested 25000 nM) | 12.2 | 9.82 | 26.4 | 27.8
7 | CNC(=O)CN1CCC(Oc2cc3c(Nc4cccc(Cl)c4F)ncnc3cc2OC)CC1 [Sapitinib] (top concentration tested 1000 nM) | 0 | 0 | 1.89 | 0
8 | CN1CCN(CCOc2cc(OC3CCOCC3)c3c(Nc4c(Cl)ccc5c4OCO5)ncnc3c2)CC1 [Saracatinib] (top concentration tested 10000 nM) | 1.77 | 9.4 | 7.28 | 6.87
9 | CC[C@H](CO)Nc1nc(NCc2ccccc2)c2ncn(C(C)C)c2n1 [Seliciclib] (top concentration tested 10000 nM) | 2.48 | 6.62 | 6.02 | 6.69
10 | O=C(/C=C\n1cnc(-c2cc(C(F)(F)F)cc(C(F)(F)F)c2)n1)NNc1cnccn1 [Selinexor] (top concentration tested 10000 nM) | 14.5 | 26.4 | 26.9 | 30.8
11 | Cn1cnc2c(F)c(Nc3ccc(Br)cc3Cl)c(C(=O)NOCCO)cc21 [Selumetinib] (top concentration tested 10000 nM) | 0.68 | 0 | 1.4 | 0.99
12 | Cc1cc(C)c(/C=C2\C(=O)Nc3ccccc32)[nH]1 [Semaxanib] (top concentration tested 10000 nM) | 3.22 | 8.57 | 0 | 2.08
13 | c1ccc2c(CCNc3ccc(Nc4ccncc4)cc3)c[nH]c2c1 [Serdemetan] (top concentration tested 10000 nM) | 0 | 1.74 | 5.06 | 7.89
14 | O=C(O)c1ccc2c(c1)nc(Nc1cccc(Cl)c1)c1ccncc12 [Silmitasertib] (top concentration tested 10000 nM) | 0 | 1.84 | 6.52 | 7.79
15 | CO[C@H]1C[C@@H]2CC[C@@H](C)[C@@](O)(O2)C(=O)C(=O)N2CCCC[C@H]2C(=O)O[C@H]([C@H](C)C[C@@H]2CC[C@@H](O)[C@H](OC)C2)CC(=O)[C@H](C)/C=C(\C)[C@@H](O)[C@@H](OC)C(=O)[C@H](C)C[C@H](C)/C=C/C=C/C=C/1C [Sirolimus] (top concentration tested 100 nM) | 0 | 0 | 7 | 9.09
16 | Cc1c(C(=O)Nc2ccc(N3C[C@@H](C)O[C@@H](C)C3)nc2)cccc1-c1ccc(OC(F)(F)F)cc1 [Sonidegib] (top concentration tested 10000 nM) | 0 | 0 | 1.71 | 3.16
17 | C=CCN(/C=C1/C(=O)O[C@H](COC)[C@@]2(C)C1=C(O)C(=O)C1=C2[C@H](OC(C)=O)C[C@]2(C)C(=O)CC[C@@H]12)CC=C [Sonolisib] (top concentration tested 10000 nM) | 2.34 | 0 | 1.67 | 0.33
18 | CNC(=O)c1cc(Oc2ccc(NC(=O)Nc3ccc(Cl)c(C(F)(F)F)c3)cc2)ccn1 [Sorafenib] (top concentration tested 1000 nM) | 1.07 | 0 | 0 | 0.09

Row | Structure (SMILES) | drug sensitivity score (HEK293sieSTAT3(Y640F) [1]) | drug sensitivity score (HEK293sieSTAT3(wt) [2]) | drug sensitivity score (HEK293sieSTAT3(Y640F) [3]) | drug sensitivity score (HEK293sieSTAT3(wt) [4])
19 | CN1CCN(c2nc(C3=C(c4c[nH]c5ccccc45)C(=O)NC3=O)c3ccccc3n2)CC1 [Sotrastaurin] (top concentration tested 10000 nM) | 3 | 0.69 | 3.63 | 5.78
20 | C=CC(=O)Nc1cccc(Nc2nc(Nc3ccc(OCCOC)cc3)ncc2F)c1 [Spebrutinib] (top concentration tested 1000 nM) | 0 | 0 | 2.4 | 0
21 | O=[N+]([O-])c1ccc2c(c1)S(=O)(=O)C=C2 [Stattic] (top concentration tested 50000 nM) | 16.9 | 18.9 | 17.2 | 17.2
22 | CC(C)n1cnc2c(NCCc3ccc(O)cc3)nc(-c3csc4ccccc34)nc21 [StemRegenin 1] (top concentration tested 10000 nM) | 0.52 | 5.48 | 3.04 | 5.04
23 | CN(N=O)C(=O)N[C@@H](C=O)[C@@H](O)[C@H](O)[C@H](O)CO [Streptozocin] (top concentration tested 10000 nM) | 0 | 0 | 0 | 1.93
24 | CCN(CC)CCNC(=O)c1c(C)[nH]c(/C=C2\C(=O)Nc3ccc(F)cc32)c1C [Sunitinib] (top concentration tested 1000 nM) | 0 | 0 | 0.02 | 0
25 | CC(C)(O)CC(=O)NCCn1ccc2ncnc(Nc3ccc(Oc4cccc(C(F)(F)F)c4)c(Cl)c3)c21 [TAK-285] (top concentration tested 2500 nM) | 0 | 0 | 0 | 0
26 | N#Cc1c(Oc2ccc(F)c(NC(=O)Cc3cccc(C(F)(F)F)c3)c2)ccc2nc(NC(=O)C3CC3)sc12 [TAK-632] (top concentration tested 10000 nM) | 0 | 0 | 11.1 | 8.51
27 | CCc1nc(-c2cccc(C)c2)c(-c2ccnc(NC(=O)c3ccccc3)c2)s1 [TAK-715] (top concentration tested 10000 nM) | 0 | 0 | 4.68 | 4.5
28 | Cn1c(=O)c(F)c(Nc2ccc(I)cc2F)c2c(=O)n(C[C@@H](O)CO)cnc21 [TAK-733] (top concentration tested 1000 nM) | 0 | 0 | 1.47 | 0
29 | CCS(=O)(=O)c1cccc(-c2cc(C(=O)NC3CCN(C)CC3)c(C)c3[nH]c4ncc(C)cc4c23)c1 [TAK-901] (top concentration tested 1000 nM) | 0 | 2.83 | 4.54 | 4.52
30 | COc1cc(C(=O)NC2CCN(C)CC2)c(F)cc1Nc1ncc2c(n1)N(C1CCCC1)CC(F)(F)C(=O)N2C [TAK-960] (top concentration tested 2500 nM) | 0.89 | 0 | 0 | 0
31 | Cc1cccc(-c2[nH]c(CNc3ccccc3F)nc2-c2ccc3ncnn3c2)n1 [TEW-7197] (top concentration tested 2500 nM) | 0 | 0.27 | 2.53 | 1.04
32 | Nc1nc(N)c2nc(-c3cccc(O)c3)c(-c3cccc(O)c3)nc2n1 [TG100-115] (top concentration tested 10000 nM) | 0 | 0 | 0.15 | 0
33 | Cc1cc(C(C)Nc2ccccc2)c2nc(N3CCOCC3)cc(=O)n2c1 (stereo not given) [TGX-221] (top concentration tested 10000 nM) | 0 | 0 | 0.57 | 0
34 | Nc1nc(NC2CC2)cc(-c2cccc(Cl)c2Cl)n1 [TH588] (top concentration tested 25000 nM) | 2.04 | 5.04 | 3.43 | 6.38
35 | NC(=O)Nc1sc(-c2ccc(F)cc2)cc1C(N)=O [TPCA-1] (top concentration tested 25000 nM) | 0.96 | 5.56 | 5.84 | 7.61
